The values below come from US20050014849A1, “Antifungal phenylethylene” (priority 2001, published 2005).

Molecules are shown by their SMILES. In brackets after ≈: the same amount, converted by molar mass. A value given as a limit tells only on which side of the number the result lay.

One assay deals with N. gonorrhoeae. As to the kind of experiment: NCCLS broth macrodilution assay, antibacterial. The format is cell-based. The settings on record: Neisseria gonorrhoeae. As to the method:
(§1) The antibacterial activity of TMPN was also assessed by the NCCLS broth macrodilution assay. Isolated colonies from overnight cultures were suspended and diluted as recommended to yield final inocula of approximately 5×10^5 cfu/ml. Tests were performed in sterile plastic tubes (12 by 75 mm) containing twofold dilutions of TMPN in gonococcal typing broth (Neisseria), Mueller Hinton II (MHII) (cation adjusted) broth containing 3% lysed horse blood (Streptococcus) or MHII broth (all other bacteria). One tube was left drug-free (but contained an equivalent volume of DMSO) for a turbidity control. Tubes were incubated without agitation at 37° C. with 5% CO2 (Streptococcus, Neisseria), or at 35° C. (remaining bacteria). MICs were determined after 24 h for all bacteria except Micrococcus, which was read at 48 h. The MIC was defined as the lowest concentration of drug that inhibited all visible growth of the test organism (optically clear).

The next assay deals with all bacteria. The assay is described as follows: NCCLS broth macrodilution assay, antibacterial. The settings on record: Neisseria gonorrhoeae; all bacteria (single exception N. gonorrhoeae). The format is cell-based. The protocol:
as §1

The next assay relates to C. krusei (10). As to the kind of experiment: Broth macrodilution MIC/MFC. Format: cell-based, Candida krusei. The protocol:
(§2) TMPN was screened against yeasts by the broth macrodilution assay according to the NCCLS [7]. Yeasts were suspended and diluted as recommended to yield final inocula ranging from 0.5-2.5×10^3 cfu/ml. Tests were performed in sterile 12 by 75 mm plastic tubes containing two-fold dilutions of TMPN in 0.165 M morpholinepropanesulfonic acid buffered RPMI 1640 medium (pH 7.0). One tube was again left drug free (but contained an equivalent volume of DMSO) for a turbidity control. Tubes were incubated without agitation at the appropriate temperature (see Fungal Strains section above). MICs were determined after 72 h for Cryptococcus and after 48 h for other yeast genera. The MIC was defined as the lowest concentration of TMPN that inhibited all visible growth of the test organism (optically clear).
(§3) Minimum fungicidal concentrations (MFCs) were determined by subculturing 0.1 ml from each tube with no visible growth in the MIC broth macrodilution series onto the appropriate drug-free plates (see Fungal Strains section above).

In assay [1] the test system is murine P388 lymphocytic leukemia cell line and six human cancer cell lines. The assay is described as follows: Sulforhodamine B cancer cell growth inhibition (summary over lines). The format is cell-based. As to the method:
(§4) An investigation TMPN's in vitro antineoplastic activity was also conducted. This investigation included an analysis of both cell growth, and of the effects of TMPN upon tubulin. Inhibition of cancer cell growth was assessed using the Sulforhodamine B assay as previously described. Briefly, cells in 5% fetal calf serum/RPMI-1640 were inoculated into 96 well plates, incubated 24 h and 10-fold dilutions of TMPN added. After a 48 h incubation, plates were fixed with trichloroacetic acid, washed, stained with Sulforhodamine B and read with an automated microtiter plate reader.

In a further assay the test system is Prostate DU-145. The assay is described as follows: Sulforhodamine B cancer cell growth inhibition. Format: cell-based. The settings on record: Homo sapiens, 48 h, read-out: GI50 (inhibition of 50% of cell growth). The protocol: as §4
For the next assay, the system named is Ovarian OVCAR-3. The assay is described as follows: Sulforhodamine B cancer cell growth inhibition. The settings on record: Homo sapiens, 48 h, read-out: GI50 (inhibition of 50% of cell growth). The format is cell-based. The protocol:
as §4

The subject of the next assay is CNS SF-295. As to the kind of experiment: Sulforhodamine B cancer cell growth inhibition. The format is cell-based. The settings on record: Homo sapiens, 48 h, read-out: GI50 (inhibition of 50% of cell growth). The protocol: as §4
The test system of another assay is Lung-NSC NCI-H460. The assay is described as follows: Sulforhodamine B cancer cell growth inhibition. The format is cell-based. The settings on record: Homo sapiens, 48 h, read-out: GI50 (inhibition of 50% of cell growth). The protocol:
as §4

The test system of a further assay is Colon KM20L2. The assay is described as follows: Sulforhodamine B cancer cell growth inhibition. Format: cell-based. The settings on record: Homo sapiens, KM-20L2, 48 h, read-out: GI50 (inhibition of 50% of cell growth). The protocol: as §4
Another assay relates to Pancreas BXPC-3. As to the kind of experiment: Sulforhodamine B cancer cell growth inhibition. The format is cell-based. The settings on record: Homo sapiens, 48 h, read-out: GI50 (inhibition of 50% of cell growth). As to the method:
as §4

A further assay has as its system C. parapsilosis (10). As to the kind of experiment: Broth macrodilution MIC/MFC. The format is cell-based, Candida parapsilosis. The protocol:
as §2, §3

In assay [2] the test system is C. parapsilosis ATCC 22019. As to the kind of experiment: Broth macrodilution MIC/MFC. The format is cell-based, Candida parapsilosis. As to the method: as §2, §3
For assay [3], the system named is C. uniguttulatus ATCC 66033. As to the kind of experiment: Broth macrodilution MIC/MFC. Format: cell-based, Cryptococcus uniguttulatus. The protocol:
as §2, §3

The test system of assay [4] is C. uniguttulatus ATCC 34143. The assay is described as follows: Broth macrodilution MIC/MFC. Format: cell-based, Cryptococcus uniguttulatus. The protocol:
as §2, §3

In general, MIC refers to the lowest concentration that inhibits growth of the organism. Low values mean a more susceptible organism, high ones a less susceptible organism. What is called GI50 is the concentration that inhibits growth by half.

With `COc1cc(C=C[N+](=O)[O-])cc(OC)c1OC` [TMPN, 1-(3′,4′,5′-trimethoxyphenyl)-2-nitro-ethylene], the results for the minimum inhibitory concentration (MIC) against N. gonorrhoeae and in the assay with all bacteria were 4 µg/mL (≈ 16.7 µM) and over 64 µg/mL, respectively. For the same compound, in the assay on C. krusei (10) (C. krusei (10)), the “MFC 50% (MFC at which 50% of the strains are killed)” value came out at 32 µg/mL. For the same compound, the “MFC 90% (MFC at which 90% of the strains are killed)” value against C. krusei (10) (C. krusei (10)) came out at 32 µg/mL. Besides, the “MFC Range” value was 16 to 64 µg/mL against C. krusei (10) (C. krusei (10)), 32 µg/mL (≈ 134 µM) in assay [2], 32 µg/mL (≈ 134 µM) in [3] and 16 µg/mL (≈ 66.9 µM) in assay [4]. Further, the “MIC Range” value against C. krusei (10) (C. krusei (10)) was 8 to 16 µg/mL; against C. parapsilosis (10), 16 to 32 µg/mL; in assay [2], 16 µg/mL (≈ 66.9 µM); in [3] it was 16 µg/mL (≈ 66.9 µM); in [4] it was 8 µg/mL (≈ 33.4 µM). Also, in the assay on C. krusei (10) (C. krusei clinical isolates), the “share of isolates with MFC/MIC ratio <2” value worked out at 70%. Also, the MIC50 in the assay with C. krusei (10) (Pichia kudriavzevii, C. krusei (10), read-out: MIC 50% (MIC at which 50% of the strains are inhibited)) was found to be 8 µg/mL (≈ 33.4 µM). In the assay on C. krusei (10) (Pichia kudriavzevii, C. krusei (10), read-out: MIC 90% (MIC at which 90% of the strains are inhibited)), the MIC90 amounted to 16 µg/mL (≈ 66.9 µM). The GI50 in [1] (Mus musculus, P388, murine P388 and six human cancer cell lines, read-out: GI50 values, range over cell lines) was 1 to 4 µg/mL (≈ 4.18 to 16.7 µM); with Prostate DU-145, 1.1 µg/mL (≈ 4.6 µM); with Ovarian OVCAR-3 it was 1.8 µg/mL (≈ 7.52 µM); with CNS SF-295 it was 2 µg/mL (≈ 8.36 µM); in the assay on Lung-NSC NCI-H460, 1.4 µg/mL (≈ 5.85 µM); in the assay on Colon KM20L2, 1.4 µg/mL (≈ 5.85 µM). For the same compound, the GI50 in the assay on Pancreas BXPC-3 was determined as 1.6 µg/mL (≈ 6.69 µM). In addition, in [1] (murine P388 and six human cancer cell lines), the “GI50 values, range over cell lines” value lay in the range of 1.1 to 4.1 µg/mL.
